The results in this text go back to patent US7910591B2, “Piperazine derivatives of alkyl oxindoles” (EGIS Gyogyszergyar NYRT., priority 2004, dated 2011).

As a reminder, the melting point is the temperature, or range, at which the solid turns liquid. For orientation: IC50 means the point on the concentration scale where inhibition reaches its midpoint. Lower therefore signals greater potency in that assay.

One data set concerns the target T1, 5-HT7 receptor (Homo sapiens, UniProt P34969).
T1 construct: expressed in transfected cells
Nature of the data set: 5-HT7 receptor binding. The conditions noted are these: human cloned receptors; ligand 3H-lizergic acid diethylamide (LSD) 1.0 nM; non-specific binding clozapine 25 μM. On the procedure: (§1) For the determination of 5-HT7 receptor affinity human cloned receptors were used. The α1 receptor affinities were determined from isolated frontal cortex preparation of male Wistar rats weighing 120-200 g. The protein contents of membrane preparations were determined by the method of Lowry (1951).
(§2) In the course of 5-HT7 and α1 receptor binding studies the ligands were ^3H-lizergic acid diethylamide (LSD) (1.0 nM) and ^3H-prazosine (0.3 nM). Clozapine (25 μM) and prazosine (1 μM) were used for the measurement of non-specific bindings. The α1 receptor binding studies were carried out according to the methods of Reader, and Greengrass (Reader, T. A., Briere, R., Grondin, L.: J. Neural Transm. 68, p. 79 (1987); Greengrass, P., Brenner, R.: Eur. J. Pharmacol. 55, p. 323 (1979)).
(§3) IC50 is the concentration where the difference between the whole binding and non-specific binding is 50%. The compounds with an IC50 value smaller than […] were considered effective in this test.

The target in the next data set is α1 receptor. Nature of the data set: α1 receptor binding. Details: species or system rat. The following applies: isolated frontal cortex preparation of male Wistar rats; ligand 3H-prazosine 0.3 nM; non-specific binding prazosine 1 μM. On the procedure:
as §1, §2, §3

Structures can show the parent of a compound that is named as a salt. Some results are limits rather than exact numbers.

T1 sequence (P34969 whole entry): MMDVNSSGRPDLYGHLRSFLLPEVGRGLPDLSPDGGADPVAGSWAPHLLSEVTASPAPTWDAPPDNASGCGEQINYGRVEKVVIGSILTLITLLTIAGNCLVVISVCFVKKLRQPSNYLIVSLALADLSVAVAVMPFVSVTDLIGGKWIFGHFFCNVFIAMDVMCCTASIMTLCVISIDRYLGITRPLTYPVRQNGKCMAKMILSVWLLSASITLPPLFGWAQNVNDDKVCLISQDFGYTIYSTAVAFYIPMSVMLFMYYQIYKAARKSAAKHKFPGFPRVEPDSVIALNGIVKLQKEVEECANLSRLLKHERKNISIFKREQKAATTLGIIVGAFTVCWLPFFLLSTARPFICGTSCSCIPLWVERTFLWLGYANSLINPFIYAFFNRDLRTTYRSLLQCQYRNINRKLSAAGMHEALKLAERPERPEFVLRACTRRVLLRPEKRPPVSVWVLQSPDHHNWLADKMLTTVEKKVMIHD

For the compound `COc1ccc(Cl)cc1N1CCN(CCCCC2C(=O)Nc3ccccc32)CC1` (stereo not shown) (as salt: hydrochloride) [Example 11, 3-{4-[4-(5-Chloro-2-methoxyphenyl)-piperazine-1-yl]-butyl}-1,3-dihydro-2H-indol-2-one Monohydrochloride], the melting point lay in the range of 91 to 94 °C.
The compound `O=C1Nc2ccccc2C1CCCCN1CCN(c2cc(Cl)cc3c2OCCO3)CC1` (stereo not shown) (as salt: oxalate) [Example 6, 3-{4-[4-(7-Chloro-2,3-dihydrobenzo[1,4]dioxin-5-yl)-piperazine-1-yl]-butyl}-1,3-dihydro-2H-indol-2-one Monooxalate] had a melting point of 236 to 238 °C.
The same measure, in the same setting: to `COc1cccc(N2CCN(CCCCC3C(=O)Nc4ccccc43)CC2)c1` (stereo not shown) (as salt: oxalate) [Example 9, 3-{4-[4-(3-Methoxyphenyl)-piperazine-1-yl]-butyl}-1,3-dihydro-2H-indol-2-one Monooxalate] belongs 208 to 211 °C.
In turn, `COc1cccc(N2CCN(CCCCC3C(=O)Nc4ccc(F)cc43)CC2)c1` (stereo not shown) (as salt: oxalate) [Example 12, 5-Fluoro-3-{4-[4-3-methoxyphenyl)-piperazine-1-yl]-butyl}-1,3-dihydro-2H-indol-2-one Monooxalate] returned a melting point of 211 to 214 °C.
On to `O=C1Nc2ccccc2C1CCCCN1CCN(c2ccccn2)CC1` (stereo not shown) [Example 5, 3-[4-(4-Pyridin-2-yl-piperazine-1-yl)-butyl]-1,3-dihydro-2H-indol-2-one], for which the melting point was in the range of 131 to 132 °C. For the same compound, the IC50 at 5-HT7 receptor was below 100 nM. Further, the IC50 at α1 receptor was below 100 nM.
On 5-HT7 receptor, `O=C1Nc2ccccc2C1CCCCN1CCN(c2cc(Cl)cc3c2OCCO3)CC1` (stereo not shown) [Example 6, 3-{4-[4-(7-Chloro-2,3-dihydrobenzo[1,4]dioxin-5-yl)-piperazine-1-yl]-butyl}-1,3-dihydro-2H-indol-2-one Monooxalate] yielded an IC50 below 100 nM.
Compound `O=C1Nc2ccc(F)cc2C1CCCCN1CCN(c2ccccn2)CC1` (stereo not shown) [Example 7, 5-Fluoro-3-[4-(4-pyridin-2-yl-piperazine-1-yl)-butyl]-1,3-dihydro-2H-indol-2-one] registered a melting point of 132 to 134 °C.
With `O=C1Nc2cc(F)ccc2C1CCCCN1CCN(c2ccccn2)CC1` (stereo not shown) [Example 8, 6-Fluoro-3-[4-(4-pyridin-2-yl-piperazine-1-yl)-butyl]-1,3-dihydro-2H-indol-2-one], the melting point was in the range of 136 to 137 °C. At 5-HT7 receptor, this compound showed an IC50 below 100 nM. This compound also displayed an IC50 on α1 receptor below 100 nM.
As to `COc1cccc(N2CCN(CCCCC3C(=O)Nc4ccccc43)CC2)c1` (stereo not shown) [Example 9, 3-{4-[4-(3-Methoxyphenyl)-piperazine-1-yl]-butyl}-1,3-dihydro-2H-indol-2-one Monooxalate], the half-inhibitory concentration (IC50) on 5-HT7 receptor is below 100 nM.
In turn, `O=C1Nc2ccc(F)cc2C1CCCCN1CCN(c2cc(Cl)cc3c2OCCO3)CC1` (stereo not shown) [Example 10, 3-{4-[4(7-Chloro-2,3-dihydrobenzo[1,4]dioxin-5-yl)piperazine-1-yl]-butyl}-5-fluoro-1,3-dihydro-2H-indol-2-one] had a melting point of 146 to 148 °C. The compound also yielded an IC50 at 5-HT7 receptor below 100 nM. Further, the IC50 on α1 receptor was below 50 nM.
Turning to `COc1ccc(Cl)cc1N1CCN(CCCCC2C(=O)Nc3ccccc32)CC1` (stereo not shown) [Example 11, 3-{4-[4-(5-Chloro-2-methoxyphenyl)-piperazine-1-yl]-butyl}-1,3-dihydro-2H-indol-2-one Monohydrochloride], the IC50 at 5-HT7 receptor was below 100 nM.
Turning to `COc1cccc(N2CCN(CCCCC3C(=O)Nc4ccc(F)cc43)CC2)c1` (stereo not shown) [Example 12, 5-Fluoro-3-{4-[4-3-methoxyphenyl)-piperazine-1-yl]-butyl}-1,3-dihydro-2H-indol-2-one Monooxalate], the IC50 at 5-HT7 receptor and at α1 receptor was below 100 nM throughout.
